Laboratory results reported in article PMC12550136, “Functional and structural characterization of F1 ‐ATPase with common ancestral core domains in stator ring” (Protein Science : A Publication of the Protein Society, 2025).

Tested on: T1, F1 ^anc_core
T1 construct: gene atpD; alpha: TF1 residues 1-94 + alpha^anc NBD/CTD; beta: TF1 residues 1-78 + beta^anc NBD/CTD; N-terminal His-tags; alpha3beta3gamma; expressed in E. coli JM103 delta-unc; with ATP synthase gamma chain
Test: single-molecule rotation assay, […] nm gold colloid, Michaelis-Menten fit
Format: biochemical, synthetic construct
Details: 50 mM Hepes-KOH pH 7.5, 100 mM KCl

Compound | Km (5 mM MgCl2, ATP-regenerating system, room temperature) [µM] | Km (5 mM MgCl2, room temperature) [µM]
Nc1ncnc2c1ncn2[C@@H]1O[C@H](COP(=O)(O)OP(=O)(O)OP(=O)(O)O)[C@@H](O)[C@H]1O [ATP] | 2.6 | –
Nc1ncnc2c1ncn2[C@@H]1O[C@H](COP(=O)(O)OP(=O)(O)OP(O)(O)=S)[C@@H](O)[C@H]1O [ATPγS] | – | 0.68
